Laboratory results taken from patent US20230139883A1, “Peptides for Inducing Differentiation” (Shimadzu Corporation, priority 2020, published 2023).

What was measured:
FGFR1 = assay: Phage display selection against FGFR1 with Miseq analysis of the bound phages; assay type: binding
Method: The collected phage library was mixed with 100 nM of FGFR3 solution and allowed to react overnight at 4° C. (Table 5: Panning Round 1). After the reaction, the binding phages were captured by magnetic beads modified with protein A, and washed three times with PBS-T, followed by eluting the bound phages with Gly-HCl (pH 2.0). After neutralizing with 2M Tris, the phages were infected to E. coli. After 4 hours of incubation, helper phages were added, and the E. coli were allowed to produce phages overnight. Next, phage solution was prepared from the culture supernatant. The prepared phage solution was mixed with FGFR3 solution and allowed to react overnight at 4° C. (Table 5: Panning Round 2). After the reaction, the bound phages were eluted. Phage solution prepared in the same way was mixed with FGFR3 solution and allowed to react at 4° C. for 1 hour (Table 5: Panning Round 3). After the reaction, the bound phages were eluted. This operation was repeated two more times, and after Panning Round 5, the bound phages were eluted. Note that as the rounds proceeded, the number of washes with PBS-T was increased. (Table 5). The titer of the Output phage in each round was also determined. The titer of phage was determined from the number of colonies obtained by incubating the E. coli TG1 strain contacted with the phage at 37° C. overnight. As shown in FIG. 3<Input phage (Round 5)>, the eluted phage library after panning was subjected to Human IgG Fc-immobilized plate, and negative selection was performed by collecting unbound phages. The phage library was then acted to FGFR1 prepared to concentrations of 100 nM, 10 nM, and 1 nM. Bound phages were then collected. The phagemid DNA of the collected phages was extracted, samples were prepared according to Illumina's protocol for Miseq, and a comprehensive analysis of the phagemid DNA was performed. Among the sequences obtained, 23 sequences with high incidence rates were selected (Table 6).

FGFR = assay: Binding to FGFR by surface plasmon resonance (Biacore T200); details: SPR, 25° C., FGFR1, FGFR2 or FGFR3 immobilized (FIG. 4)
Description: One clone was selected from the amino acid sequences of the clones obtained above, and the peptide of 100nX (X is 9: SEQ ID NO: 9, the same shall apply hereinafter.) was synthesized. The peptide was synthesized based on the Fmoc solid-phase synthesis method. To measure the binding activity of the peptides, according to the operation manual of the SPR instrument Biacore T200 (GE Healthcare), FGFR1 was immobilized as a ligand to the instrument's sensor chip CMS using the amine coupling method. In addition, to confirm binding to other FGFR species, FGFR2 or FGFR3-immobilized sensor chips were also prepared. Ethanolamine was immobilized as a reference, and the samples were measured as analyte.
All measurements were performed at 25° C. and HBS-EP+ was used as the running buffer. After injecting the running buffer dissolving the peptide into the CMS sensor chip immobilized with various FGFRs (flow rate 30 μl/min, 2 min), the peptide was dissociated by flowing the running buffer for 3 min. The obtained sensorgram was directly curve-fitted with the reaction equation, and the rate constant was calculated by a nonlinear least-squares method. Dissociation constants were calculated by kinetic analysis using Biacore T200 Evaluation Software (GE Healthcare). A 1:1 binding model was used in the analysis.

iPS-hFB [1] = assay type: cell-based
Method: An attempt to apply 100nX to a differentiation induction system from iPS cells to hepatocytes was made. […] Then, cells were seeded in 6-well plates at 1.5×10^5 cells/well. […] The medium was replaced on Day 3 using the same medium. The medium was removed on Day 5 and RPMI1640 supplemented with B-27 Plus Supplement (Thermo), 20 ng/mL BMP4, and 20 ng/mL bFGF was added at 2 mL/well (conventional protocol; FIG. 14, protocol 1). […] Further, as a control group, RPMI1640 supplemented with B-27 Plus Supplement (Thermo), and 20 ng/mL BMP4 was added at 2 mL/well (conventional protocol; FIG. 14, protocol 2). The medium was replaced on Day 8 using the same medium. In all conditions, the medium was removed on Day 10, and RPMI1640 supplemented with B-27 Plus Supplement (Thermo), and 20 ng/mL HGF was added at 2 mL/well. The medium was replaced on Day 12 and Day 14 using the same medium. The medium was exchanged with HCM BulletKit (Lonza) (containing HBM, Ascorbic Acid, BSA-FAF, Hydrocortisone, Transferin, GA-1000, and Insulin) on Day 15 at 2 mL/well. On Day 17 and Day 18, the medium was exchanged with the same medium.

iPS-hFB [2] = assay: CYP3A4 activity (luciferin-IPA) of hepatocytes induced to differentiate from iPS cells; assay type: cell-based; details: Day 20, luminescence corrected by protein
Method: Differentiation of iPS cells was induced in the same manner as in Example 13. After the cells were washed with PBS on Day 20, the medium was exchanged with HCM BulletKit (Lonza) containing 3 μM luciferin-IPA at 1 mL/well. After 1 hour of reaction at 37° C., 100 μL of the supernatant was transferred to a 96-well white plate., and Luciferin Detection Reagent was added at 100 μL/well. After 20 minutes of reaction at room temperature, the luminescence was measured. The cells were also crushed and the luminescence value was corrected by quantifying proteins with TaKaRa BCA Protein Assay Kit (Takara Bio).

iPS-hFB [3] = assay: Differentiation induction of iPS cells into neurons: RT-qPCR of SYN1, MAP2 and Nr2f1; assay type: cell-based; details: for Nr2f1 gene expression level: 0.25 nM peptide on Day 3, Day 35
Method: An attempt to apply 100nX to a differentiation induction system from iPS cells to neurons was made. […] A group in which G-MEM supplemented with 20% KSR (Thermo), 1xNEAA (Thermo), 0.1 mM 2-mercaptoethanol (Wako Pure Chemicals), 1 mM sodium pyruvate (Thermo), 20 μM Y27632 (Wako Pure Chemicals), 3 μM IWR-1-endo (Wako Pure Chemicals), 5 μM SB431542 (Wako Pure Chemicals) was added at 100 μL/well was prepared as a control group (FIG. 14, protocol 2). On Day 6, the entire medium was replaced with the medium of each condition containing no Y27632 (Wako Pure Chemicals). Likewise, the medium was exchanged at Day 10 and Day 14. The medium was removed on Day 18 and the cells added with DMEM/F12 (GlutaMax) (Thermo) containing 1% N-2 Supplement and 1% Chemically Defined Lipid Concentrate were transferred to EZSPHERE (AGC Technoglass) at 2 mL/well. On Day 21, 24, and 27, the medium was replaced with DMEM/F12 (GlutaMax) (Thermo) containing 1% N-2 Supplement. Further, On Day 30, and 33, the medium was replaced with DMEM/F12 (GlutaMax) (Thermo) containing 1% N-2 Supplement and 1% Chemically Defined Lipid Concentrate.

iPS-hFB [4] = assay: Differentiation induction of iPS cells into cardiomyocytes: observation of beating cell clusters; details: Example 3: 0.05 μM peptide + Activin A on Day 1, no bFGF
iPS-hFB [5] = assay: Differentiation induction of iPS cells into cardiomyocytes: RT-qPCR of cardiomyocyte markers cTNT and Actinin; details: Example 4: peptide in combination with bFGF, Day 23; compared to conventional protocol 1
[6] = 0.25 nM peptide, Day 35, compared to control protocol 2 (no bFGF)

Sequence: CAAELAALEAELAALEGVPGDNNGTRGKLYHLKNKLHRLKNAC [100n9]
- 1 nM Num. of reads (FGFR1; phage library after panning Round 5, bound to 1 nM FGFR1): 6403
- 10 nM Num. of reads (FGFR1; phage library after panning Round 5, bound to 10 nM FGFR1): 7169
- 100 nM Num. of reads (FGFR1; phage library after panning Round 5, bound to 100 nM FGFR1): 6135
- 1 nM Ranking (FGFR1; rank by number of reads, 1 nM FGFR1): 4
- 10 nM Ranking (FGFR1; rank by number of reads, 10 nM FGFR1): 3
- 100 nM Ranking (FGFR1; rank by number of reads, 100 nM FGFR1): 3
- binding affinity to the FGFR (FGFR): high binding affinity
- promotion of hepatic differentiation (iPS-hFB [1]): as effective as or better than conventional bFGF
- CYP3A4 activity (iPS-hFB [2]; compared to control protocol 2 (BMP4)): significantly increased
- CYP3A4 activity (iPS-hFB [2]; compared to conventional protocol 1 (BMP4, bFGF)): similar
- Nr2f1 gene expression level (iPS-hFB [3]; compared to control protocol 2 (no bFGF)): significantly increased
- Nr2f1 gene expression level (iPS-hFB [3]; compared to conventional protocol 1 (bFGF)): similar
- MAP2 gene expression level (iPS-hFB [3]; [6]): tended to increase
- SYN1 gene expression level (iPS-hFB [3]; [6]): tended to increase
- promotion of / contribution to neural differentiation (iPS-hFB [3]; overall, relative to bFGF): as effective as conventional bFGF
- day on which beating cell clusters were observed (iPS-hFB [4]): ≥ 16 days
- gene expression levels (cTNT, ACTN2) (iPS-hFB [5]): significantly increased
